# From PubChem BioAssay (NCI)
#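 1) Cells in 96-well plates. 2) Compound, 48 h, 5 concentrations. 3) Linear interpolation between surrounding doses. 4) Unreached endpoint = highest concentration. The concentration for full growth arrest is given as TGI.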
# What was measured:
# Assay in all cases: inhibition of tumour cell growth, NCI panel, 48 h
# [1] = test system: 786-0 renal
# [2] = test system: ACHN renal
# [3] = test system: HL-60(TB) leukemia
# [4] = test system: HS 578T breast
# [5] = test system: MALME-3M melanoma
# [6] = test system: OVCAR-4 ovarian
# [7] = test system: OVCAR-5 ovarian
# [8] = test system: OVCAR-8 ovarian
# [9] = test system: PC-3 prostate
# [10] = test system: RXF 393 renal
# [11] = test system: SR leukemia
# [12] = test system: SW-620 colon
# [13] = test system: UACC-62 melanoma
# [14] = test system: T-47D breast
SMILES,TGI [1] [µM],TGI [2] [µM],TGI [3] [µM],TGI [4] [µM],TGI [5] [µM],TGI [6] [µM],TGI [7] [µM],TGI [8] [µM],TGI [9] [µM],TGI [10] [µM],TGI [11] [µM],TGI [12] [µM],TGI [13] [µM],TGI [14] [µM]
OC1C#CCSCC#C/C=C\1 (stereo not given),39.5,> 100,71.8,> 100,> 100,> 100,> 100,77,> 100,68.1,> 100,36.6,> 100,–
N#Cc1c(N)n(-c2cccc(C(=O)O)c2)c(=O)c2cc([N+](=O)[O-])ccc12,> 100,> 100,> 100,> 100,–,> 100,–,> 100,> 100,–,–,> 100,> 100,> 100
Cc1ccc(-n2c(N)c(C#N)c3[nH]nc(N)c3c2=O)cc1,> 100,> 100,> 100,> 100,–,> 100,–,> 100,> 100,> 100,–,> 100,> 100,> 100
NNC(=O)c1n[nH]nc1C(=O)NN,28.8,–,> 100,–,33.1,–,> 100,> 100,> 100,> 100,> 100,–,–,–
CN=C1CC2c3cc(OC)c(OC)cc3CCN2C2=C1C(=O)CC(C)(C)C2 (stereo not given),> 100,> 100,> 100,–,> 100,–,> 100,> 100,–,> 100,> 100,> 100,–,–
CC1CN(C(=O)CN2CCC(CCCCN(C)C)CC2)c2ccccc2NC1=O (stereo not given),> 100,> 100,> 100,–,> 100,> 100,> 100,–,–,–,> 100,> 100,> 100,–
C[C@H](CCC(=O)O)[C@H]1CC[C@H]2[C@@H]3CC[C@@H]4C[C@H](O)CC[C@]4(C)[C@H]3C[C@H](O)[C@]12C,> 100,> 100,67.1,> 100,> 100,> 100,> 100,> 100,> 100,> 100,–,> 100,> 100,91.2
COc1ccc(C(OCC2OC(n3cc(C)c(=O)[nH]c3=O)CC2n2cc(Cn3cc(Cl)c(=O)[nH]c3=O)nn2)(c2ccccc2)c2ccccc2)cc1 (stereo not given),> 100,> 100,6.99,> 100,> 100,> 100,> 100,> 100,> 100,> 100,–,> 100,> 100,> 100
CN1CCOC(c2ccccc2)O1 (stereo not given),> 100,> 100,> 100,–,> 100,> 100,> 100,> 100,–,> 100,> 100,> 100,> 100,–
CN=C(N=Nc1c(O)[nH]c2ccccc12)SCC(=O)c1ccc(Br)cc1,16,52.2,> 100,> 40,> 47.1,> 100,> 88.8,> 40.7,29.4,19.2,–,> 34.1,> 100,> 100
N#C/C1=C(\N)CCSSSC1,> 100,> 100,–,–,> 100,> 100,> 100,43.2,–,> 100,> 100,> 100,–,–
O=[N+]([O-])c1ccc2c(c1)C1=C(CO2)Cc2ccccc2O1,39.9,29.9,–,–,70.4,> 100,54.7,> 100,38.6,–,> 100,53.5,50.7,> 100
COC(=O)c1cc2ccc(N)nc2[nH]c1=O,> 100,> 100,–,–,> 100,> 100,> 100,> 100,> 100,> 100,–,> 100,–,> 100
COC(=O)/C=C(\C)CC(O)/C=C(\C)CCC=C(C)C (stereo not given),> 100,> 100,46.2,> 100,> 100,> 100,> 100,> 100,> 100,> 100,68.2,> 100,> 100,–
COc1ccc(-[n+]2nc(S(=O)(=O)O)c(/C=C/c3ccc(N(C)C)cc3)cc2C#N)cc1,> 100,> 100,–,> 100,–,> 100,> 100,> 100,> 100,–,–,> 100,> 100,> 100
CN(C)C1(N(C)C)Oc2c(c(=O)n(C)c(=O)n2C)C(c2ccccc2)C1(F)F (stereo not given),> 100,> 100,–,–,–,> 100,> 100,–,> 100,> 100,–,> 100,> 100,> 100
COC1(OC)C(N(C)C)=C(Cl)C(=O)/C1=C/C=O,> 100,> 100,> 100,–,> 100,> 100,> 100,> 100,–,–,> 100,> 100,> 100,–
CCCCNC(=S)Nc1nc(C(=O)NNC(=S)Nc2ccccc2)cs1,> 100,> 100,–,–,–,> 100,> 100,> 100,> 100,–,–,> 100,> 100,> 100
O=C(O)[C@@H]1CCS(=O)(=O)N1,> 100,> 100,> 100,–,> 100,> 100,> 100,> 100,> 100,> 100,> 100,> 100,> 100,> 100
CC1CCC(=O)C(C(=O)CC2CC(=O)N(C)C(=O)C2)C1 (stereo not given),> 100,> 100,> 100,> 100,> 100,> 100,> 100,> 100,> 100,> 100,–,> 100,> 100,> 100
N#Cc1c2ccccc2cn1-c1ccc(F)cc1,> 100,> 100,24.2,–,86.1,> 100,> 100,–,–,–,–,> 100,> 100,–
